Organism: Rattus norvegicus
Experiment: Open TG-GATES - Regimen: Single
Type: toxicity, organism-based, Sprague-Dawley
Parameters: regimen Single, gender Male, age 6 weeks
Settings: in vivo, po, 30 mg/kg, route gavage, dose level Middle; for APTT / Bas / Eos / Fbg / Hb / Ht / Lym / MCH / MCHC / MCV / Mono / Neu / PT / Plat / RBC / Ret / WBC: tissue Blood; for KIDNEY_L / KIDNEY_R / KIDNEY_TOTAL: tissue Kidney; for LIVER: tissue Liver; for A/G / ALP / ALT / AST / BUN / CRE / Ca / Cl / DBIL / GLC / IP / K / LDH / Na / PL / RALB / TBIL / TC / TG / TP / gamma-GTP: tissue Plasma

Question: For `CCCc1cc(=O)[nH]c(=S)[nH]1` [PROPYLTHIOURACIL], which TERMINAL_BW (3 h) is on record?
Answer: 179.8 g

Question: And the APTT (3 h)?
Answer: 16 s

Question: And the Bas (3 h)?
Answer: 0%

Question: And the Eos (3 h)?
Answer: 1%

Question: What about the Fbg (3 h) of the same molecule?
Answer: 211.4 mg/dL

Question: What about the Hb (3 h) of the same molecule?
Answer: 13.2 g/dL

Question: And the Ht (3 h)?
Answer: 40%

Question: And the Lym (3 h)?
Answer: 80.2%

Question: And the MCH (3 h)?
Answer: 22.2 pg

Question: What about the MCHC (3 h) of the same molecule?
Answer: 33%

Question: What about the MCV (3 h) of the same molecule?
Answer: 67.2 fL

Question: And the Mono (3 h)?
Answer: 5.6%

Question: What about the Neu (3 h) of the same molecule?
Answer: 13.6%

Question: And the PT (3 h)?
Answer: 12.8 s

Question: What about the Plat (3 h) of the same molecule?
Answer: 100.4 x10_4/uL

Question: What about the RBC (3 h) of the same molecule?
Answer: 595.4 x10_4/ul

Question: And the Ret (3 h)?
Answer: 10.1%

Question: And the WBC (3 h)?
Answer: 101.6 x10_2/uL

Question: What about the KIDNEY_L (3 h) of the same molecule?
Answer: 0.8 g

Question: And the KIDNEY_R (3 h)?
Answer: 0.8 g

Question: And the KIDNEY_TOTAL (3 h)?
Answer: 1.7 g

Question: And the LIVER (3 h)?
Answer: 8.4 g

Question: What about the A/G (3 h) of the same molecule?
Answer: 2

Question: What about the ALP (3 h) of the same molecule?
Answer: 1017.6 IU/L

Question: What about the ALT (3 h) of the same molecule?
Answer: 32.6 IU/L

Question: What about the AST (3 h) of the same molecule?
Answer: 65.4 IU/L

Question: What about the BUN (3 h) of the same molecule?
Answer: 12 mg/dL

Question: And the CRE (3 h)?
Answer: 0.4 mg/dL

Question: What about the Ca (3 h) of the same molecule?
Answer: 11.2 mg/dL

Question: And the Cl (3 h)?
Answer: 105.2 meq/L

Question: What about the DBIL (3 h) of the same molecule?
Answer: 0.042 mg/dL

Question: What about the GLC (3 h) of the same molecule?
Answer: 193.6 mg/dL

Question: What about the IP (3 h) of the same molecule?
Answer: 10.8 mg/dL

Question: And the K (3 h)?
Answer: 4.4 meq/L

Question: What about the LDH (3 h) of the same molecule?
Answer: 86.6 IU/L

Question: What about the Na (3 h) of the same molecule?
Answer: 138.2 meq/L

Question: And the PL (3 h)?
Answer: 135 mg/dL

Question: What about the RALB (3 h) of the same molecule?
Answer: 3.6 g/dL

Question: And the TBIL (3 h)?
Answer: 0.3 mg/dL

Question: What about the TC (3 h) of the same molecule?
Answer: 77.2 mg/dL

Question: And the TG (3 h)?
Answer: 30.6 mg/dL

Question: What about the TP (3 h) of the same molecule?
Answer: 5.5 g/dL

Question: And the gamma-GTP (3 h)?
Answer: 1.2 IU/L

Question: And the TERMINAL_BW (6 h)?
Answer: 177.6 g

Question: And the APTT (6 h)?
Answer: 16.2 s

Question: What about the Bas (6 h) of the same molecule?
Answer: 0%

Question: What about the Eos (6 h) of the same molecule?
Answer: 1%

Question: What about the Fbg (6 h) of the same molecule?
Answer: 208.8 mg/dL

Question: What about the Hb (6 h) of the same molecule?
Answer: 13.2 g/dL

Question: What about the Ht (6 h) of the same molecule?
Answer: 39.3%

Question: And the Lym (6 h)?
Answer: 77.2%

Question: What about the MCH (6 h) of the same molecule?
Answer: 22.2 pg

Question: What about the MCHC (6 h) of the same molecule?
Answer: 33.5%

Question: And the MCV (6 h)?
Answer: 66.3 fL

Question: What about the Mono (6 h) of the same molecule?
Answer: 6.8%

Question: What about the Neu (6 h) of the same molecule?
Answer: 15.2%

Question: What about the PT (6 h) of the same molecule?
Answer: 12.7 s

Question: What about the Plat (6 h) of the same molecule?
Answer: 107.3 x10_4/uL

Question: And the RBC (6 h)?
Answer: 593.4 x10_4/ul

Question: And the Ret (6 h)?
Answer: 10.5%

Question: What about the WBC (6 h) of the same molecule?
Answer: 83.3 x10_2/uL

Question: What about the KIDNEY_L (6 h) of the same molecule?
Answer: 0.8 g

Question: And the KIDNEY_R (6 h)?
Answer: 0.9 g

Question: What about the KIDNEY_TOTAL (6 h) of the same molecule?
Answer: 1.7 g

Question: And the LIVER (6 h)?
Answer: 8.1 g

Question: What about the A/G (6 h) of the same molecule?
Answer: 2

Question: And the ALP (6 h)?
Answer: 892.6 IU/L

Question: And the ALT (6 h)?
Answer: 31.8 IU/L

Question: What about the AST (6 h) of the same molecule?
Answer: 63.8 IU/L

Question: What about the BUN (6 h) of the same molecule?
Answer: 12.8 mg/dL

Question: And the CRE (6 h)?
Answer: 0.5 mg/dL

Question: What about the Ca (6 h) of the same molecule?
Answer: 11.2 mg/dL

Question: And the Cl (6 h)?
Answer: 105 meq/L

Question: And the DBIL (6 h)?
Answer: 0.062 mg/dL

Question: What about the GLC (6 h) of the same molecule?
Answer: 182 mg/dL

Question: What about the IP (6 h) of the same molecule?
Answer: 10.8 mg/dL

Question: And the K (6 h)?
Answer: 4.9 meq/L

Question: And the LDH (6 h)?
Answer: 89.6 IU/L

Question: And the Na (6 h)?
Answer: 138.4 meq/L

Question: And the PL (6 h)?
Answer: 127.4 mg/dL

Question: What about the RALB (6 h) of the same molecule?
Answer: 3.7 g/dL

Question: What about the TBIL (6 h) of the same molecule?
Answer: 0.3 mg/dL

Question: What about the TC (6 h) of the same molecule?
Answer: 70.4 mg/dL

Question: What about the TG (6 h) of the same molecule?
Answer: 36.4 mg/dL

Question: What about the TP (6 h) of the same molecule?
Answer: 5.5 g/dL

Question: And the gamma-GTP (6 h)?
Answer: 1.8 IU/L

Question: And the TERMINAL_BW (9 h)?
Answer: 178.7 g

Question: And the APTT (9 h)?
Answer: 15.7 s

Question: What about the Bas (9 h) of the same molecule?
Answer: 0%

Question: What about the Eos (9 h) of the same molecule?
Answer: 1.6%

Question: What about the Fbg (9 h) of the same molecule?
Answer: 216 mg/dL

Question: And the Hb (9 h)?
Answer: 13.3 g/dL

Question: And the Ht (9 h)?
Answer: 40%

Question: And the Lym (9 h)?
Answer: 73.4%

Question: What about the MCH (9 h) of the same molecule?
Answer: 22.1 pg

Question: And the MCHC (9 h)?
Answer: 33.2%

Question: And the MCV (9 h)?
Answer: 66.6 fL

Question: What about the Mono (9 h) of the same molecule?
Answer: 8.2%

Question: And the Neu (9 h)?
Answer: 17%

Question: What about the PT (9 h) of the same molecule?
Answer: 12.7 s

Question: And the Plat (9 h)?
Answer: 102.7 x10_4/uL

Question: What about the RBC (9 h) of the same molecule?
Answer: 601.2 x10_4/ul

Question: What about the Ret (9 h) of the same molecule?
Answer: 9.8%

Question: What about the WBC (9 h) of the same molecule?
Answer: 64.5 x10_2/uL

Question: And the KIDNEY_L (9 h)?
Answer: 0.9 g

Question: What about the KIDNEY_R (9 h) of the same molecule?
Answer: 0.9 g

Question: What about the KIDNEY_TOTAL (9 h) of the same molecule?
Answer: 1.7 g

Question: And the LIVER (9 h)?
Answer: 7.5 g

Question: What about the A/G (9 h) of the same molecule?
Answer: 1.9

Question: And the ALP (9 h)?
Answer: 878.2 IU/L

Question: What about the ALT (9 h) of the same molecule?
Answer: 30.4 IU/L

Question: And the AST (9 h)?
Answer: 61.6 IU/L

Question: And the BUN (9 h)?
Answer: 12.2 mg/dL

Question: What about the CRE (9 h) of the same molecule?
Answer: 0.5 mg/dL

Question: What about the Ca (9 h) of the same molecule?
Answer: 10.5 mg/dL

Question: And the Cl (9 h)?
Answer: 106.4 meq/L

Question: And the DBIL (9 h)?
Answer: 0 mg/dL

Question: And the GLC (9 h)?
Answer: 194.2 mg/dL

Question: What about the IP (9 h) of the same molecule?
Answer: 10.6 mg/dL

Question: And the K (9 h)?
Answer: 4.7 meq/L

Question: And the LDH (9 h)?
Answer: 92.4 IU/L

Question: And the Na (9 h)?
Answer: 138.8 meq/L

Question: What about the PL (9 h) of the same molecule?
Answer: 131 mg/dL

Question: What about the RALB (9 h) of the same molecule?
Answer: 3.6 g/dL

Question: What about the TBIL (9 h) of the same molecule?
Answer: 0.5 mg/dL

Question: And the TC (9 h)?
Answer: 77.6 mg/dL

Question: And the TG (9 h)?
Answer: 33.8 mg/dL

Question: What about the TP (9 h) of the same molecule?
Answer: 5.5 g/dL

Question: And the gamma-GTP (9 h)?
Answer: 1 IU/L

Question: What about the TERMINAL_BW (24 h) of the same molecule?
Answer: 189 g

Question: What about the APTT (24 h) of the same molecule?
Answer: 16 s

Question: And the Bas (24 h)?
Answer: 0%

Question: What about the Eos (24 h) of the same molecule?
Answer: 1%

Question: And the Fbg (24 h)?
Answer: 206.6 mg/dL

Question: What about the Hb (24 h) of the same molecule?
Answer: 13.6 g/dL

Question: What about the Ht (24 h) of the same molecule?
Answer: 40.7%

Question: And the Lym (24 h)?
Answer: 78%

Question: And the MCH (24 h)?
Answer: 21.9 pg

Question: What about the MCHC (24 h) of the same molecule?
Answer: 33.5%

Question: And the MCV (24 h)?
Answer: 65.2 fL

Question: What about the Mono (24 h) of the same molecule?
Answer: 9%

Question: What about the Neu (24 h) of the same molecule?
Answer: 12.4%

Question: What about the PT (24 h) of the same molecule?
Answer: 12.3 s

Question: What about the Plat (24 h) of the same molecule?
Answer: 101.4 x10_4/uL

Question: What about the RBC (24 h) of the same molecule?
Answer: 623.4 x10_4/ul

Question: What about the Ret (24 h) of the same molecule?
Answer: 9.1%

Question: What about the WBC (24 h) of the same molecule?
Answer: 101.7 x10_2/uL

Question: What about the KIDNEY_L (24 h) of the same molecule?
Answer: 0.9 g

Question: What about the KIDNEY_R (24 h) of the same molecule?
Answer: 0.9 g

Question: What about the KIDNEY_TOTAL (24 h) of the same molecule?
Answer: 1.7 g

Question: And the LIVER (24 h)?
Answer: 9.5 g

Question: And the A/G (24 h)?
Answer: 2

Question: What about the ALP (24 h) of the same molecule?
Answer: 911.4 IU/L

Question: And the ALT (24 h)?
Answer: 40.8 IU/L

Question: What about the AST (24 h) of the same molecule?
Answer: 65 IU/L

Question: What about the BUN (24 h) of the same molecule?
Answer: 16.8 mg/dL

Question: And the CRE (24 h)?
Answer: 0.5 mg/dL

Question: What about the Ca (24 h) of the same molecule?
Answer: 11 mg/dL

Question: And the Cl (24 h)?
Answer: 106.8 meq/L

Question: And the DBIL (24 h)?
Answer: 0.018 mg/dL

Question: What about the GLC (24 h) of the same molecule?
Answer: 185.4 mg/dL

Question: What about the IP (24 h) of the same molecule?
Answer: 7.1 mg/dL

Question: And the K (24 h)?
Answer: 5 meq/L

Question: And the LDH (24 h)?
Answer: 90.6 IU/L

Question: And the Na (24 h)?
Answer: 139.8 meq/L

Question: What about the PL (24 h) of the same molecule?
Answer: 157.4 mg/dL

Question: And the RALB (24 h)?
Answer: 3.8 g/dL

Question: What about the TBIL (24 h) of the same molecule?
Answer: 0.3 mg/dL

Question: What about the TC (24 h) of the same molecule?
Answer: 85.2 mg/dL

Question: And the TG (24 h)?
Answer: 112 mg/dL

Question: And the TP (24 h)?
Answer: 5.7 g/dL

Question: What about the gamma-GTP (24 h) of the same molecule?
Answer: 1.2 IU/L
